# Data reported in patent US7087021B2, “Methods of screening for genes and agents affecting cardiac function” (priority 2001, dated 2006).
# Test system: Drosophila heart
# Assay: Effects of anesthesia on heart rate
# Type: in vivo, Drosophila melanogaster
# Conditions: for effect of anesthesia on heart rate (in words): anesthetized Drosophila
# Source text: […] The flies are removed from the vial as soon as they are immobile.
# A more preferred aspect the microscope is a Nikon Diaphot-TMD inverted microscope, with Nomarski (DIC) optics (without analyzer) and a 10×(N.A. 0.25) objective. Preferably, images are obtained by closing the field diaphragm, so that the light-beam is concentrated on the first ventricle of the fly's heart, and the intensity of the light-beam is increased to the maximum. Most preferably, the flies are positioned on their backs, approximately perpendicular to the light path, and fixed in this position by mounting the spread wings on a glass slide with double-stick tape. Images of the first cardiac ventricle are recorded using a Sony DXC-101 video camera on VHS tape, or using a similar recording apparatus, and the heart rate is measured from slow-motion replays. End-diastolic and end-systolic dimensions are measured on still images at the mid-point between the two major transversal tracheal tubes passing over the first cardiac ventricle. The images can also be analyzed by appropriate image analysis software. In certain aspects of the present invention semi-automated digital image processing is used to measure heart rate and its variation directly from video signals recorded in a single fly or multiple flies. Automated detection allows parameters such as heart rate variability to be detected in a single fly. […] For each fly 2-second video sequences (60 frames each) 10 times consecutively are acquired. […] After applying a low pass filter to reduce noise in the time-space signal, heart rate is estimated by automated counting of the peaks in the signal. […] An average and a standard deviation of the repetitions in the same fly, for example (i.e. about 10 repetitions) are obtained and the coefficient of variation is calculated (Armitage P, Berry G. Statistical Methods in Medical Research. 3rd ed. Oxford: Blackwell Scientific; 1994).
# CO2 the most commonly employed anesthetic for Drosophila.
SMILES,effect of anesthesia on heart rate (in words),"heart rate immediately after anesthesia (older flies, 48 days, n=7, first value) [beats per minute]","heart rate after recovery under the same conditions (older flies, 48 days, n=7, second value) [beats per minute]","heart rate immediately after anesthesia (young flies, 10 days, n=6, first value) [beats per minute]","heart rate after recovery under the same conditions (young flies, 10 days, n=6, second value) [beats per minute]",resumption of heart beat after cessation of gas exposure (n=10) [s],"heart rate immediately after anesthesia (immediately after ether anesthesia, n=5) [beats per minute]","heart rate after 30–40 min when leg movements began to return (same flies after 30–40 min, n=5, p=0.001) [beats per minute]"
CCN(CC)CC [triethylamine],not cause significant changes in heart rate,213±6,211±11,283±6,282±4,,,
O=C=O [CO2],cardiac arrest within a few seconds,,,,,20 to 30,,
CCOCC [Ethyl-ether],depress heart rate,,,,,,120±19,248±11
